Experiments:
TNF-α = test: Bovine whole blood assay, LPS-induced TNF-α; type: cell-based; settings: Bos taurus, fresh whole bovine blood, LPS 1 μg/mL
Experimental: (§1) (protected from light) for 30 minutes.

IL-1β = test: Bovine whole blood assay, IL-1β; type: cell-based; settings: overstimulation of IL-1β, perceived cellular toxicity concentration;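 further: compound concentration at which rising IL-1β release signals cytotoxicity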
Experimental: as §1

IL-6 = test: Bovine whole blood assay, IL-6; type: cell-based; settings: Bos taurus, fresh whole bovine blood, LPS 1 μg/mL
Experimental: as §1

E. coli = test: MIC, E. coli; settings: Escherichia coli
S. aureus = test: MIC, S. aureus; settings: Staphylococcus aureus
P. multocida = test: MIC, P. multocida; settings: Pasteurella multocida
M. haemolytica = test: MIC, M. haemolytica; settings: Mannheimia haemolytica
[1] = system: BRD pathogens, M. haemolytica and P. multocida; test: MIC screening panel, BRD pathogens (CLSI broth micro-dilution); settings: read-out: MIC flag (*) at Ex #

Row | SMILES | IC50 (TNF-α) [µM] | IL-1β OS of LPS (IL-1β) [µM] | IC50 (IL-6) [µM] | MIC [1] [µg/mL] | further results
1 | CC[C@H]1OC(=O)[C@H](C)[C@@H](O[C@H]2C[C@@](C)(OC)[C@](O)(CNC(CO)CO)[C@H](C)O2)[C@H](C)[C@@H](O[C@@H]2O[C@H](C)C[C@H]3[C@H]2OC(C(F)(F)F)N3C)[C@](C)(O)C[C@@H](C)CN[C@H](C)[C@@H](O)[C@]1(C)O (stereo partly drawn) [Example A-4, (2R,3S,4R,5R,8R,10R,11R,12S,13S,14R)-13-(((2R,4R,5S,6S)-5-(((1,3-dihydroxypropan-2-yl)amino)methyl)-5-hydroxy-4-methoxy-4,6-dimethyltetrahydro-2H-pyran-2-yl)oxy)-11-(((3aR,4S,6R,7aS)-1,6-dimethyl-2-(trifluoromethyl)hexahydro-2H-pyrano[4,3-d]oxazol-4-yl)oxy)-2-ethyl-3,4,10-trihydroxy-3,5,8,10,12,14-hexamethyl-1-oxa-6-azacyclopentadecan-15-one] | 40 | 80 | 200 |  | 
2 | CC[C@H]1OC(=O)[C@H](C)[C@@H](O[C@H]2C[C@@](C)(OC)[C@](O)(CNC3CCC3)[C@H](C)O2)[C@H](C)[C@@H](O[C@@H]2O[C@H](C)C[C@H]3[C@H]2OC(C(F)(F)F)N3C)[C@](C)(O)C[C@@H](C)CN[C@H](C)[C@@H](O)[C@]1(C)O (stereo partly drawn) [Example A-7, (2R,3S,4R,5R,8R,10R,11R,12S,13S,14R)-13-(((2R,4R,5S,6S)-5-((cyclobutylamino)methyl)-5-hydroxy-4-methoxy-4,6-dimethyltetrahydro-2H-pyran-2-yl)oxy)-11-(((3aR,4S,6R,7aS)-1,6-dimethyl-2-(trifluoromethyl)hexahydro-2H-pyrano[4,3-d]oxazol-4-yl)oxy)-2-ethyl-3,4,10-trihydroxy-3,5,8,10,12,14-hexamethyl-1-oxa-6-azacyclopentadecan-15-one] |  |  |  |  | MIC (E. coli; E. coli 25922): > 64 µg/mL; MIC (E. coli; E. coli W3110): > 64 µg/mL; MIC (S. aureus): > 64 µg/mL; MIC (P. multocida; P. multocida 43137): > 64 µg/mL; MIC (P. multocida; P. multocida 46572, murine efficacy challenge strain): > 64 µg/mL; MIC (M. haemolytica; M. haemolytica 12726): > 64 µg/mL; MIC (M. haemolytica; M. haemolytica 33396): > 64 µg/mL; MIC (M. haemolytica; M. haemolytica 46571, bovine efficacy challenge strain): > 64 µg/mL
3 | CC[C@H]1OC(=O)[C@H](C)[C@@H](O[C@H]2C[C@@](C)(OC)[C@](O)(CNCCS(C)(=O)=O)[C@H](C)O2)[C@H](C)[C@@H](O[C@@H]2O[C@H](C)C[C@H]3[C@H]2OC(C(F)(F)F)N3C)[C@](C)(O)C[C@@H](C)CN[C@H](C)[C@@H](O)[C@]1(C)O (stereo partly drawn) [Example A-9, (2R,3S,4R,5R,8R,10R,11R,12S,13S,14R)-11-(((3aR,4S,6R,7aS)-1,6-dimethyl-2-(trifluoromethyl)hexahydro-2H-pyrano[4,3-d]oxazol-4-yl)oxy)-2-ethyl-3,4,10-trihydroxy-13-(((2R,4R,5S,6S)-5-hydroxy-4-methoxy-4,6-dimethyl-5-(((2-(methylsulfonyl)ethyl)amino)methyl)tetrahydro-2H-pyran-2-yl)oxy)-3,5,8,10,12,14-hexamethyl-1-oxa-6-azacyclopentadecan-15-one] | 28 | 40 | 70 |  | 
4 | CC[C@H]1OC(=O)[C@H](C)[C@@H](O[C@H]2C[C@@](C)(OC)[C@](O)(CNCCN3CCCCC3=O)[C@H](C)O2)[C@H](C)[C@@H](O[C@@H]2O[C@H](C)C[C@H]3[C@H]2OC(C(F)(F)F)N3C)[C@](C)(O)C[C@@H](C)CN[C@H](C)[C@@H](O)[C@]1(C)O (stereo partly drawn) [Example A-15, (2R,3S,4R,5R,8R,10R,11R,12S,13S,14R)-11-(((3aR,4S,6R,7aS)-1,6-dimethyl-2-(trifluoromethyl)hexahydro-2H-pyrano[4,3-d]oxazol-4-yl)oxy)-2-ethyl-3,4,10-trihydroxy-13-(((2R,4R,5S,6S)-5-hydroxy-4-methoxy-4,6-dimethyl-5-(((2-(2-oxopiperidin-1-yl)ethyl)amino)methyl)tetrahydro-2H-pyran-2-yl)oxy)-3,5,8,10,12,14-hexamethyl-1-oxa-6-azacyclopentadecan-15-one] | 23 | 40 |  | < 64 | 
5 | CC[C@H]1OC(=O)[C@H](C)[C@@H](O[C@H]2C[C@@](C)(OC)[C@](O)(CNCC3CCC(=O)N3)[C@H](C)O2)[C@H](C)[C@@H](O[C@@H]2O[C@H](C)C[C@H]3[C@H]2OC(C(F)(F)F)N3C)[C@](C)(O)C[C@@H](C)CN[C@H](C)[C@@H](O)[C@]1(C)O (stereo partly drawn) [Example A-21, (2R,3S,4R,5R,8R,10R,11R,12S,13S,14R)-11-(((3aR,4S,6R,7aS)-1,6-dimethyl-2-(trifluoromethyl)hexahydro-2H-pyrano[4,3-d]oxazol-4-yl)oxy)-2-ethyl-3,4,10-trihydroxy-13-(((2R,4R,5S,6S)-5-hydroxy-4-methoxy-4,6-dimethyl-5-((((5-oxopyrrolidin-2-yl)methyl)amino)methyl)tetrahydro-2H-pyran-2-yl)oxy)-3,5,8,10,12,14-hexamethyl-1-oxa-6-azacyclopentadecan-15-one] | 80 | 32 | 78 |  | 
6 | CC[C@H]1OC(=O)[C@H](C)[C@@H](O[C@H]2C[C@@](C)(OC)[C@](O)(CNCCNC(C)=O)[C@H](C)O2)[C@H](C)[C@@H](O[C@@H]2O[C@H](C)C[C@H]3[C@H]2OC(C(F)(F)F)N3C)[C@](C)(O)C[C@@H](C)CN[C@H](C)[C@@H](O)[C@]1(C)O (stereo partly drawn) [Example A-22, N-(2-((((2S,3S,4R,6R)-6-(((2R,3S,4R,5R,8R,10R,11R,12S,13S,14R)-11-(((3aR,4S,6R,7aS)-1,6-dimethyl-2-(trifluoromethyl)hexahydro-2H-pyrano[4,3-d]oxazol-4-yl)oxy)-2-ethyl-3,4,10-trihydroxy-3,5,8,10,12,14-hexamethyl-15-oxo-1-oxa-6-azacyclopentadecan-13-yl)oxy)-3-hydroxy-4-methoxy-2,4-dimethyltetrahydro-2H-pyran-3-yl)methyl)amino)ethyl)acetamide] | 62 | 40 |  | < 64 | 
7 | CC[C@H]1OC(=O)[C@H](C)[C@@H](O[C@H]2C[C@@](C)(OC)[C@](O)(CNCCCNS(C)(=O)=O)[C@H](C)O2)[C@H](C)[C@@H](O[C@@H]2O[C@H](C)C[C@H]3[C@H]2OC(C(F)(F)F)N3C)[C@](C)(O)C[C@@H](C)CN[C@H](C)[C@@H](O)[C@]1(C)O (stereo partly drawn) [Example A-23, N-(3-((((2S,3S,4R,6R)-6-(((2R,3S,4R,5R,8R,10R,11R,12S,13S,14R)-11-(((3aR,4S,6R,7aS)-1,6-dimethyl-2-(trifluoromethyl)hexahydro-2H-pyrano[4,3-d]oxazol-4-yl)oxy)-2-ethyl-3,4,10-trihydroxy-3,5,8,10,12,14-hexamethyl-15-oxo-1-oxa-6-azacyclopentadecan-13-yl)oxy)-3-hydroxy-4-methoxy-2,4-dimethyltetrahydro-2H-pyran-3-yl)methyl)amino)propyl)methanesulfonamide] | 134 | 40 |  | < 64 | 
8 | CC[C@H]1OC(=O)[C@H](C)[C@@H](O[C@H]2C[C@@](C)(OC)[C@](O)(CNCCN3CCOC3=O)[C@H](C)O2)[C@H](C)[C@@H](O[C@@H]2O[C@H](C)C[C@H]3[C@H]2OC(C(F)(F)F)N3C)[C@](C)(O)C[C@@H](C)CN[C@H](C)[C@@H](O)[C@]1(C)O (stereo partly drawn) [Example A-24, (2R,3S,4R,5R,8R,10R,11R,12S,13S,14R)-11-(((3aR,4S,6R,7aS)-1,6-dimethyl-2-(trifluoromethyl)hexahydro-2H-pyrano[4,3-d]oxazol-4-yl)oxy)-2-ethyl-3,4,10-trihydroxy-13-(((2R,4R,5S,6S)-5-hydroxy-4-methoxy-4,6-dimethyl-5-(((2-(2-oxooxazolidin-3-yl)ethyl)amino)methyl)tetrahydro-2H-pyran-2-yl)oxy)-3,5,8,10,12,14-hexamethyl-1-oxa-6-azacyclopentadecan-15-one] | 70 | 40 | 29 |  | 
9 | CCCNC[C@]1(O)[C@H](C)O[C@@H](O[C@H]2[C@H](C)[C@@H](O[C@@H]3O[C@H](C)C[C@H]4[C@H]3OC(C(F)(F)F)N4CC(C)C)[C@](C)(O)C[C@@H](C)CN[C@H](C)[C@@H](O)[C@](C)(O)[C@@H](CC)OC(=O)[C@@H]2C)C[C@@]1(C)OC (stereo partly drawn) [Example A-27, (2R,3S,4R,5R,8R,10R,11R,12S,13S,14R)-2-ethyl-3,4,10-trihydroxy-13-(((2R,4R,5S,6S)-5-hydroxy-4-methoxy-4,6-dimethyl-5-((propylamino)methyl)tetrahydro-2H-pyran-2-yl)oxy)-11-(((3aR,4S,6R,7aS)-1-isobutyl-6-methyl-2-(trifluoromethyl)hexahydro-2H-pyrano[4,3-d]oxazol-4-yl)oxy)-3,5,8,10,12,14-hexamethyl-1-oxa-6-azacyclopentadecan-15-one] | 3 | 2 | 1 | < 64 | 
10 | CCCNC[C@]1(O)[C@H](C)O[C@@H](O[C@H]2[C@H](C)[C@@H](O[C@@H]3O[C@H](C)C[C@H]4[C@H]3OC(C(F)(F)F)N4Cc3ccccc3)[C@](C)(O)C[C@@H](C)CN[C@H](C)[C@@H](O)[C@](C)(O)[C@@H](CC)OC(=O)[C@@H]2C)C[C@@]1(C)OC (stereo partly drawn) [Example A-28, (2R,3S,4R,5R,8R,10R,11R,12S,13S,14R)-11-(((3aR,4S,6R,7aS)-1-benzyl-6-methyl-2-(trifluoromethyl)hexahydro-2H-pyrano[4,3-d]oxazol-4-yl)oxy)-2-ethyl-3,4,10-trihydroxy-13-(((2R,4R,5S,6S)-5-hydroxy-4-methoxy-4,6-dimethyl-5-((propylamino)methyl)tetrahydro-2H-pyran-2-yl)oxy)-3,5,8,10,12,14-hexamethyl-1-oxa-6-azacyclopentadecan-15-one] | 8 | >250 | 12 | < 64 | 
